The target in experiment [1] is T1, vasopressin V1 receptor subtype in human platelet membranes (Homo sapiens, UniProt P37288).
T1 construct: tissue Hudson Valley Blood Services; host or cells: human blood platelets (frozen platelet rich plasma)
Kind of experiment: Binding to Vasopressin V1 Receptor Subtype in Human Platelet Membranes. The note with it: human platelet V1 (*). On the procedure: (a) Platelet Membrane Preparation:
Frozen platelet rich plasma (PRP), received from the Hudson Valley Blood Services, are thawed to room temperature. (Platelet Source: Hudson Valley Blood Services, Westchester Medical Center, Valhalla, N.Y.). The tubes containing the PRP are centrifuged at 16,000×g for 10 min. at 4° C. and the supernatant fluid discarded. The platelets resuspended in an equal volume of 50.0 mM Tris.HCl, pH 7.5 containing 120 mM NaCl and 20.0 mM EDTA. The suspension is recentrifuged at 16,000×g for 10 min. This washing step is repeated one more time. The wash discarded and the lysed pellets homogenized in low ionic strength buffer of Tris.HCl, 5.0 mM, pH 7.5 containing 5.0 mM EDTA. The homogenate is centrifuged at 39,000×g for 10 min. The resulting pellet is resuspended in Tris.HCl buffer, 70.0 mM, pH 7.5 and recentrifuged at 39,000×g for 10 min. The final pellet is resuspended in 50.0 mM Tris.HCl buffer pH 7.4 containing 120 mM NaCl and 5.0 mM KCl to give 1.0-2.0 mg protein per ml of suspension.
(b) Binding to Vasopressin V1 Receptor Subtype in Human Platelet Membranes:
In wells of a 96 well format microtiter plate, add 100 μl of 50.0 mM Tris.HCl buffer containing 0.2% BSA and a mixture of protease inhibitors (aprotinin, leupeptin etc.). Then add 20 μl of [^3 H]Ligand (Manning or Arg^8 Vasopressin), to give final concentrations ranging from 0.01 to 10.0 nM. Initiate the binding by adding 80.0 μl of platelet suspension (approx. 100 μg protein). Mix all reagents by pipetting the mixture up and down a few times. Non specific binding is measured in the presence of 1.0 μM of unlabeled ligand (Manning or Arg^8 Vasopressin). Let the mixture stand undisturbed at room temperature for ninety (90) min. Upon this time, rapidly filter off the incubate under vacuum suction over GF/B filters, using a Brandel Harvester. The radioactivity caught on the filter disks is determined by the addition of liquid scintillant and counting in a liquid scintillator.

A further experiment has as its system vasopressin V2. Briefly: Vasopressin V2 Antagonist Activity in Conscious Hydrated Rats (diuretic effect). The format is in vivo, normal Sprague-Dawley rats. The following applies: AVP 0.4 μg/kg i.p. In a few lines:
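Conscious rats were dosed orally at 0.1–100 mg/kg, and AVP 0.4 μg/kg i.p. in peanut oil followed 1 h later. Urine volume, osmolality and Na/K/Cl were compared against AVP-treated controls, with non-AVP rats as water-loading controls.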

The target of experiment [2] is T2, human V2 vasopressin receptor (Homo sapiens, UniProt P30518).
T2 construct: expressed in transfected cells; host or cells: mouse fibroblast cell line LV-2
T2 sequence (P30518 whole entry): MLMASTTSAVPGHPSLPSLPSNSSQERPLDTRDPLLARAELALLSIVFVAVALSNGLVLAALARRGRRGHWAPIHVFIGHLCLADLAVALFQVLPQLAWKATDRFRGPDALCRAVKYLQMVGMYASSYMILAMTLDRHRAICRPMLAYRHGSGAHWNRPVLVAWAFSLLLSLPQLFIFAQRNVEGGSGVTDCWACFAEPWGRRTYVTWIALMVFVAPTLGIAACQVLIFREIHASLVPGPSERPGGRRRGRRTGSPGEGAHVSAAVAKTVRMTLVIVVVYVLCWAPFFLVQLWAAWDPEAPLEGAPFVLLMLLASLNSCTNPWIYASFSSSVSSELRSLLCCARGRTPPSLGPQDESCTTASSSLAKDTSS
Kind of experiment: Binding to Membranes of Mouse Fibroblast Cell Line (LV-2) Transfected with the cDNA Expressing the Human V2 Vasopressin Receptor. The note with it: LV-2 cells. The protocol: Flasks of 175 ml capacity, containing attached cells grown to confluence, are cleared of culture medium by aspiration. The flasks containing the attached cells are rinsed with 2×5 ml of phosphate buffered saline (PBS) and the liquid aspirated off each time. Finally, 5 ml of an enzyme free dissociation Hank's based solution (Specialty Media, Inc., Lafayette, N.J.) is added and the flasks are left undisturbed for 2 min. The content of all flasks is poured into a centrifuge tube and the cells pelleted at 300×g for 15 min. The Hank's based solution is aspirated off and the cells homogenized with a polytron at setting #6 for 10 sec in 10.0 mM Tris.HCl buffer, pH 7.4 containing 0.25M sucrose and 1.0 mM EDTA. The homogenate is centrifuged at 1500×g for 10 min to remove ghost membranes. The supernatant fluid is centrifuged at 100,000×g for 60 min to pellet the receptor protein. Upon completion, the pellet is resuspended in a small volume of 50.0 mM Tris.HCl buffer, pH 7.4. The protein content is determined by the Lowry method and the receptor membranes are suspended in 50.0 mM Tris.HCl buffer containing 0.1 mM phenylmethylsulfonylfluoride (PMSF) and 0.2% bovine serum albumin (BSA) to give 2.5 mg receptor protein per ml of suspension.
For binding experiments, the following is added in μl volume to wells of a 96 well format of a microtiter plate: 100.0 μl of 100.0 mM Tris.HCl buffer containing 0.2% heat inactivated BSA, 10.0 mM MgCl2 and a mixture of protease inhibitors: leupeptin, 1.0 mg %; aprotinin, 1.0 mg %; 1,10-phenanthroline, 2.0 mg %; trypsin inhibitor, 10.0 mg % and 0.1 mM PMSF., 20.0 μl of [^3 H] Arginine^8, vasopressin (S.A. 75.0 Ci/mmole) at 0.8 nM and the reaction initiated by the addition of 80.0 μl of tissue membranes ([…]).
The plates are left undisturbed on the bench top for 120 min to reach equilibrium. Non specific binding is assessed in the presence of 1.0 μM of unlabeled ligand, added in 20 μl volume. For test compounds, these are solubilized in 50% dimethylsulfoxide (DMSO) and added in 20.0 μl volume to a final incubation volume of 200 μl. Upon completion of binding, the content of each well is filtered off, using a Brandel® cell Harvester (Gaithersburg, Md.). The radioactivity trapped on the filter disk by the ligand-receptor complex is assessed by liquid scintillation counting in a Packard LS Counter, with an efficiency of 65% for tritium.

For experiment [3], the target named is T3, oxytocin receptors (rat uterus membranes) (Rattus norvegicus, UniProt P70536).
T3 construct: The resulting pellet containing the oxytocin receptors is resuspended; from tissue; host or cells: uterus membranes of DES-treated female Sprague-Dawley rats
T3 sequence (P70536 1-388): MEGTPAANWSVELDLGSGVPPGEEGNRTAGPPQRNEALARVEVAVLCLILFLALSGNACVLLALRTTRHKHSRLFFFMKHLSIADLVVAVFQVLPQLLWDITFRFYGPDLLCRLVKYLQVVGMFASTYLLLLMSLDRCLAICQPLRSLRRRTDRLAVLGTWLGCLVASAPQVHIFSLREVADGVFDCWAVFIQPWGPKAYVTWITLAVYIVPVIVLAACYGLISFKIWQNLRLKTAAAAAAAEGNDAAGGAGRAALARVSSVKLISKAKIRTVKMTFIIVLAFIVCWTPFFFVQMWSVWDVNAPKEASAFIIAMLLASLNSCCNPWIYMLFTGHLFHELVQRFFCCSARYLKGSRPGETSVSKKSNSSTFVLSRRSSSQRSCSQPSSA
Briefly: Oxytocin Receptor Binding. Also on record: species or system female Sprague-Dawley rats. The protocol:
Female Sprague-Dawley rats weighing approximately 200-250 g are injected intramuscularly (i.m.) with 0.3 mg/kg of body weight of diethylstilbestrol (DES). The rats are sacrificed 18 hours later under pentobarbital anesthesia. The uteri are dissected out, cleaned of fat and connective tissues and rinsed in 50 ml of normal saline. The tissue pooled from six rats is homogenized in 50 ml of […] Tris.HCl, containing 0.5 mM dithiothreitol and 1.0 mM EDTA, adjusted to pH 7.4, using a polytron at setting 6 with three passes of 10 sec each. The homogenate is passed through two (2) layers of cheesecloth and the filtrate centrifuged at 1000×g for 10 min. The clear supernatant is removed and recentrifuged at 165,000×g for 30 min. The resulting pellet containing the oxytocin receptors is resuspended in 50.0 mM Tris.HCl containing 5.0 mM MgCl2 at pH 7.4, to give a protein concentration of 2.5 mg/ml of tissue suspension. This preparation is used in subsequent binding assays with [^3 H]Oxytocin.
Binding of 3,5-[^3 H]Oxytocin ([^3 H]OT) to its receptors is done in microtiter plates using [^3 H]OT, at various concentrations, in an assay buffer of 50.0 mM Tris.HCl, pH 7.4 and containing 5.0 mM MgCl2, and a mixture of protease inhibitors: BSA, 0.1 mg; aprotinin, 1.0 mg; 1,10-phenanthroline, 2.0 mg; […], 10.0 mg; and PMSF, 0.3 mg per 100 ml of buffer solution. Non-specific binding is determined in the presence of 1.0 uM unlabeled OT. The binding reaction is terminated after 60 min., at 22° C., by rapid filtration through glass fiber filters using a Brandel® cell harvester (Biomedical Research and Development Laboratories, Inc., Gaithersburg, Md.). Competition experiments are conducted at equilibrium using 1.0 nM [^3 H]OT and varying the concentration of the displacing agents. The concentrations of agent displacing 50% of [^3 H]OT at its sites (IC50) are calculated by a computer assisted LUNDON-2 program (LUNDON SOFTWARE INC., Ohio, USA).

The target in experiment [4] is T4, rat kidney medullary V2 receptors (Rattus norvegicus, UniProt Q00788).
T4 construct: Medullary tissues from rat kidneys are dissected out; from tissue; host or cells: rat kidney medulla membranes
T4 sequence (Q00788 whole entry): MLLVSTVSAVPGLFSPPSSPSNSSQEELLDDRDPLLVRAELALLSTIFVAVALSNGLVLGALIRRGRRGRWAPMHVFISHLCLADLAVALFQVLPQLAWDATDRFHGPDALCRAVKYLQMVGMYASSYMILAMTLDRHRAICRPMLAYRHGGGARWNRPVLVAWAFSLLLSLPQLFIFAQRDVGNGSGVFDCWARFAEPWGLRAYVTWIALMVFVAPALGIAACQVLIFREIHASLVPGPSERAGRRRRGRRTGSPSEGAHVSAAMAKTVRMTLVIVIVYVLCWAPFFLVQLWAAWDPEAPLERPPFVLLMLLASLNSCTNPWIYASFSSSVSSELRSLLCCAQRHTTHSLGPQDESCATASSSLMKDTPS
Kind of experiment: Binding Assay to Rat Kidney Medullary V2 Receptors. The note with it: for IC50: rat kidney medullary V2; for inhibition at 10 µM: rat kidney, read-out: V2, % at concentration in brackets. A digest of the protocol:
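Competition binding: [3H]AVP at 0.8 nM, test compounds from 50% DMSO, and membranes from rat kidney medulla, left 120 min on the bench. Filtration then liquid scintillation counting measured bound ligand; 1.0 μM unlabeled ligand set non-specific binding.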

In another experiment the test system is vasopressin V1. Briefly: Vasopressin V1 Antagonist Activity in Conscious Rats (vasopressin vasopressor response). Format: in vivo, rat (spontaneously hypertensive rats). The following applies: 30 mg/kg i.v. A digest of the protocol:
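Conscious rats had the ventral caudal tail artery cannulated into the lower abdominal aorta under local procaine anesthesia, plus a caudal vein cannula for intravenous dosing. Pulsatile blood pressure was recorded via a Statham P23Db transducer. Vasopressor responses to vasopressin injections were measured before and after compound dosing, with percent antagonism calculated relative to the pre-drug response taken as 100%.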

Experiment [5] deals with vasopressin V1 receptor (rat liver plasma membranes) (Rattus norvegicus, UniProt P30560). Briefly: Binding Assay to Rat Hepatic V1 Receptors. The note with it: for IC50: rat hepatic V1; for inhibition at 10 µM: 2 h, rat hepatic, read-out: V1, % at concentration in brackets.
Sequence of vasopressin V1 receptor (rat liver plasma membranes) (P30560 whole entry): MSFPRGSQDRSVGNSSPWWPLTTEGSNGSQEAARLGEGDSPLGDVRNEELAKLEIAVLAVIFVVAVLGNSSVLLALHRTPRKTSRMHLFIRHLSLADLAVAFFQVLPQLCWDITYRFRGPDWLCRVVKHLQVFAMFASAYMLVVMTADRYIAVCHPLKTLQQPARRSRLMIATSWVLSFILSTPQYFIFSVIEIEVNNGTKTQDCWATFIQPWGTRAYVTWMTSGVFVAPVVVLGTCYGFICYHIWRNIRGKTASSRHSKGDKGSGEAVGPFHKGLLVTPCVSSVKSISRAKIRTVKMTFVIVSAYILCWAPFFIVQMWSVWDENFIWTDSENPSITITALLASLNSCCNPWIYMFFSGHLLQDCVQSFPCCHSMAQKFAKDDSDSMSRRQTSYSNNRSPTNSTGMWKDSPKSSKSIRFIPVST

Here are results for seven compounds from US5834461A, “Tricyclic benzazepine vasopressin antagonists” (American Cyanamid Company, priority 1997, dated 1998).

For orientation: IC50 means the concentration that inhibits the measured activity by half. Read a high IC50 as a need for much substance.

T1 sequence (P37288 whole entry): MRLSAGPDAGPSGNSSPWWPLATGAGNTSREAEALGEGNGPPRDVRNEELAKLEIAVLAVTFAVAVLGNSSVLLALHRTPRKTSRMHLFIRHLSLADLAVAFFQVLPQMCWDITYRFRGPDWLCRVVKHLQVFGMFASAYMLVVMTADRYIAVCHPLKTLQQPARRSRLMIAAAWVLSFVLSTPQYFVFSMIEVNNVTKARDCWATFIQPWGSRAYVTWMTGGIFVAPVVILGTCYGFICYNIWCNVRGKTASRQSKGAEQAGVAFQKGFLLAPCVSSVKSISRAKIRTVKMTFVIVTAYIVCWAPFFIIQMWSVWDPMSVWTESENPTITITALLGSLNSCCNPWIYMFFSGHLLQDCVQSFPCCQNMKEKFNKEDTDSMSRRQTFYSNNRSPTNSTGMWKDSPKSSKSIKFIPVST

Consider `Cc1ccccc1C(=O)Nc1ccc(C(=O)N2Cc3ccsc3Cc3ccccc32)cc1` [Example 456, N-[4-[(4,10-Dihydro-5H-thieno[3,2-c][1]benzazepin-5-yl)carbonyl]phenyl]-2-methylbenzamide], for which, in experiment [1], the IC50 is 36 nM. Also, in the experiment on vasopressin V2 (10 mg/kg orally), the Osmolality came to 1209 mOsm/kg and the “Urine Volume” value is listed as 4.8 ml/4 hrs. Besides, in experiment [2], the IC50 was 9 nM.

With `Cc1ccccc1C(=O)Nc1ccc(C(=O)N2CCc3c[nH]nc3-c3ccccc32)cc1` [Example 585, N-[4-[(4.5-Dihydropyrazolo[4.3-d][1]benzaze-in-6(2H)-yl)carbonyl]phenyl]-2-methylbenzamide], the half-maximal inhibitory concentration (IC50) in experiment [1] amounted to 12 nM; in experiment [3] (second part of Table V) it was 250 nM; in experiment [4] it was 32 nM. In experiment [3], this compound registered an inhibition at 10 µM of 99%.

Consider `Cc1c(F)cccc1C(=O)Nc1ccc(C(=O)N2Cc3ccccc3Cc3ccccc32)cc1` [Example 254, N-(4-[(6,11-Dihydro-5H-dibenz[b,e]azepin-5-yl)-carbonyl]phenyl]-2-methyl-3-fluorobenzamide], for which the “MAX % Inhibition” value in the experiment on vasopressin V1 stood at 74%. Moreover, the “Time of max % inhibition” value with vasopressin V1 worked out at 60 min. Further, the inhibition at 10 µM in experiment [3] was determined as 95%. Besides, the 50% inhibitory concentration (IC50) amounted to 1900 nM in experiment [3] (first part of Table V), 37 nM in experiment [4] and 100 nM in experiment [5].

For `O=C(Nc1ccc(C(=O)N2Cc3ccccc3Cc3ccccc32)cc1)c1ccc(Cl)c(Cl)c1` [Example 250, N-[4-[(6,11-Dihydro-5H-dibenz[b,e]azepin-5-yl)-carbonyl]phenyl]-3,4-dichlorobenzamide], the Osmolality in the experiment on vasopressin V2 (30 mg/kg orally) worked out at 1378 mOsm/kg. In addition, the “Urine Volume” value in the experiment with vasopressin V2 (30 mg/kg orally) stood at 6.5 ml/4 hrs. For the same compound, the inhibition at 10 µM in experiment [3] worked out at 15%; in experiment [4], 77%; in experiment [5], 62%.

For `O=C(Nc1ccc(C(=O)N2Cc3ccccc3Cc3ccccc32)cc1)c1cc(Cl)cc(Cl)c1Cl` [Example 249, N-[4-[(6,11-Dihydro-5H-dibenz[b,e]azepin-5-yl)-carbonyl]phenyl]-2,3 5-trichlorobenzamide], the inhibition at 10 µM in experiment [3] was 38%; in experiment [4], 88%; in experiment [5] it was 61%.

In turn, `Cc1cccc(C(=O)Nc2ccc(C(=O)N3Cc4ccccc4Cc4ccccc43)cc2)c1C` [Example 11, N-[4-[(6,11-Dihydro-5H-dibenz[b,e]azepin-5-yl)carbonyl]phenyl]-2,3-dimethylbenzamide] had an Osmolality with vasopressin V2 (30 mg/kg orally) of 1114 ± 55 mOsm/kg. Moreover, in the experiment with vasopressin V2 (30 mg/kg orally), the “Urine Volume” value is 9.7 ± 0.6 ml/4 hrs. The same compound returned an inhibition at 10 µM in experiment [3] of 71%. For the same compound, the IC50 in experiment [3] (first part of Table V) came out at 4400 nM; in experiment [4], 33 nM; in experiment [5], 160 nM.

For the compound `O=C(Nc1ccc(C(=O)N2CCc3c[nH]nc3-c3ccccc32)cc1)c1ccc(Cl)cc1Cl` [Example 583, N-[4-[(4,5-Dihydropyrazolo[4,3-d][1]benzazepin-6(2H)-yl)carbonyl]phenyl]-2,4-dichlorobenzamide], the inhibition at 10 µM in experiment [3] came out at 95%. Also, the results for the concentration for half-maximal inhibition (IC50) in experiment [3] (second part of Table V), in experiment [4] and in experiment [5] were 330 nM, 40 nM and 82 nM, respectively.
